{"source": "paper PMC9011347", "about": "“Small-Molecule Inhibitors Targeting Lipolysis in Human Adipocytes” (Journal of the American Chemical Society, 2022)", "test": "Stability of NG-497 exposed to HepG2 cells", "format": "in vitro ADME", "conditions": "human, cells treated 1 h with 40 μM NG-497, inhibitor removed, DMEM 10% FCS, read-out: half-life (T1/2) when exposed to HepG2 cells", "method": "Figure 2 Development and characterization of the human ATGL inhibitor NG-497. (a) Structure and IC50 values of human ATGL inhibitors. (b) Dose-dependent inhibition of human ATGL by respective inhibitors. (c) ATGL activity was determined at the indicated substrate concentrations in the absence and presence of NG-497 (0.5 μM). Ki was determined by nonlinear regression analysis using GraphPad Prism. Lineweaver–Burk analysis of ATGL inhibition is shown in the inset. (d) Toxicity of NG-497 in HepG2 cells was determined after 24 h incubation at indicated concentrations. Cisplatin and DMSO were used as positive and negative controls, respectively. Cytotoxicity was determined using the Roche LDH Kit and calculated as relative LDH release compared to fully lysed cells. (e) Stability of NG-497 was analyzed via ultrahigh-performance liquid chromatography–mass spectrometry (UHPLC-MS) after incubation in human serum for 0 or 3 h at 37 °C. Atglistatin and a chemically related unstable compound were used as controls. […] NG-497 concentrations/well were determined at the indicated time points using UHPLC-MS. […] Statistical significance was determined via t test (*p < 0.05; **p < 0.01; ***p < 0.001) or ANOVA followed by Bonferroni post hoc test (^###p < 0.001). […] The detected 297 lipid species of both groups were analyzed with supervised multivariate analysis OPLS-DA and are shown as a loading plot. […]"}
{"smiles": "CCOc1ccc(-c2cc(OC)cc(C(=O)OC(C)C)n2)cc1", "note": "[NG-497]", "values": [{"measurement": "half-life at 40 µM", "result": 46, "unit": "min"}]}
